In ChEMBL document CHEMBL4602694, “Suppression of Drug-Resistant Non-Small-Cell Lung Cancer with Inhibitors Targeting Minichromosomal Maintenance Protein” (J Med Chem, 2020):
Activity calls are given as the source filed them. The rule behind the calls is not given here.

Key:
[1] = Antiproliferative activity against human PC9IR cells assessed as reduction in cell viability incubated for 72 hrs by SRB assay; type: functional, cell-based
[2] = tested on: CL1-0; experiment: Antiproliferative activity against human CL1-0 cells assessed as reduction in cell viability incubated for 72 hrs by SRB assay; type: functional, cell-based; settings: CL1-0, 72 h
[3] = Toxicity in athymic nude BALB/c mouse xenografted with human NCI-H1975 cells assessed as effect on serum aspartate transaminase at 1 or 4 mg/kg, ip administered for 4 weeks; type: organism-based; settings: in vivo, 672 h
[4] = Toxicity in athymic nude BALB/c mouse xenografted with human NCI-H1975 cells assessed as effect on serum alanine transaminase at 1 or 4 mg/kg, ip administered for 4 weeks; type: organism-based; settings: in vivo, 672 h
[5] = Toxicity in athymic nude BALB/c mouse xenografted with human NCI-H1975 cells assessed as effect on serum blood urea nitrogen at 1 or 4 mg/kg, ip administered for 4 weeks; type: organism-based; settings: in vivo, 672 h
[6] = tested on: NCI-H1975; experiment: Cell cycle arrest in human NCI-H1975 cells assessed as accumulation in G1/S phase at 140 nM incubated for 48 hrs by DAPI staining based immunofluorescence microscopy; type: functional
[7] = molecular target: DNA replication licensing factor MCM2 (Homo sapiens) (UniProt P49736); experiment: Induction of ubiquitination of MCM2 in human NCI-H1975 cells incubated for 24 hrs by immunoblot analysis; type: cell-based
DNA replication licensing factor MCM2 (Homo sapiens), sequence (P49736 whole entry): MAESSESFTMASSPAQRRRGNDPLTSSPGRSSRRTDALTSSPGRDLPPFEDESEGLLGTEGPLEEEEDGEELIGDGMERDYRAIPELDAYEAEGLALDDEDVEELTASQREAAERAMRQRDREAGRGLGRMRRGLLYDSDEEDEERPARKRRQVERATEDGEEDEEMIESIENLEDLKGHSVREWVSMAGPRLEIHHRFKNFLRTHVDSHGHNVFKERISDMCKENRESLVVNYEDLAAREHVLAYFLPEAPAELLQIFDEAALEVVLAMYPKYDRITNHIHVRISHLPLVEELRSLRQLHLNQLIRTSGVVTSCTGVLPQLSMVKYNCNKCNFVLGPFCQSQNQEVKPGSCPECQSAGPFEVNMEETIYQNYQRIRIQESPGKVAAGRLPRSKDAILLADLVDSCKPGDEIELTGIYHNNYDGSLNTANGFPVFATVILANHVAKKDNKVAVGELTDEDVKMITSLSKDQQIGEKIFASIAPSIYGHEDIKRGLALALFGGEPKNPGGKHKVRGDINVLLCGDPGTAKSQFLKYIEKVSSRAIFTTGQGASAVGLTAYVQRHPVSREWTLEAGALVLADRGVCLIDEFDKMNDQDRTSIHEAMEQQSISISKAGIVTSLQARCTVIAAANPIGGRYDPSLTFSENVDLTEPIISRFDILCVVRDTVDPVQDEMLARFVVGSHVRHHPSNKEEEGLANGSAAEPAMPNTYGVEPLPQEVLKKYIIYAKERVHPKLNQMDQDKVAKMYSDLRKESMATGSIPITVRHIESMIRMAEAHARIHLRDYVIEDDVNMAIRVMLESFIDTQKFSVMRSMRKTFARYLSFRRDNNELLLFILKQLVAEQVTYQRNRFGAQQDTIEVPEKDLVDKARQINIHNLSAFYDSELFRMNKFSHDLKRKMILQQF

[8] = molecular target: T1, DNA replication licensing factor MCM6 (Homo sapiens) (UniProt Q14566); experiment: Induction of ubiquitination of MCM6 in human NCI-H1975 cells incubated for 48 hrs by immunoblot analysis (reference value: 1); type: cell-based
T1 sequence (whole entry): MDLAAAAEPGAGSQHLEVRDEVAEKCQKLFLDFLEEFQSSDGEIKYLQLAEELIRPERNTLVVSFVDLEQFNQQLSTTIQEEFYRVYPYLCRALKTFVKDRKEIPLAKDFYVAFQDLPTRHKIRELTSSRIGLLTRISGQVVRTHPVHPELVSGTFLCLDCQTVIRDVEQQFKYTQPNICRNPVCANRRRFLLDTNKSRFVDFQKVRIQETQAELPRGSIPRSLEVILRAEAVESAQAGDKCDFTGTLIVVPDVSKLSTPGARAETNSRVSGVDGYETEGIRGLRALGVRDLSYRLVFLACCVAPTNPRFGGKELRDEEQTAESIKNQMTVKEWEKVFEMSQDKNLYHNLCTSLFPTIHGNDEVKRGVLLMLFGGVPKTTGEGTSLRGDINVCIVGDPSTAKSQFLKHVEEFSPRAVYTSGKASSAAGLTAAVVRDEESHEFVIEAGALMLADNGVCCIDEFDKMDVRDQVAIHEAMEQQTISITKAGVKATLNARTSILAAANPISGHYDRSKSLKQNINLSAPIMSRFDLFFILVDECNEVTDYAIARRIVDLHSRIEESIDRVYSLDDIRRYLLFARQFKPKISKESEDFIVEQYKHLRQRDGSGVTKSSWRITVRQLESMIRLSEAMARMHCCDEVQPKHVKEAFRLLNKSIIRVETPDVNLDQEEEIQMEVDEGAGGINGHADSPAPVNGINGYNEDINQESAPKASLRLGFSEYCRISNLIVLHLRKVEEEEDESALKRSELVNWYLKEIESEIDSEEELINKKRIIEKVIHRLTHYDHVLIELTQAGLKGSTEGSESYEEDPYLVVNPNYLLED

[9] = molecular target: T1, DNA replication licensing factor MCM6 (Homo sapiens); experiment: Induction of ubiquitination of MCM6 in human NCI-H1975 cells incubated for 72 hrs by immunoblot analysis (reference value: 1); type: cell-based
[10] = molecular target: DNA replication licensing factor MCM7 (Homo sapiens) (UniProt P33993); experiment: Induction of ubiquitination of MCM7 in human NCI-H1975 cells incubated for 24 hrs by immunoblot analysis (reference value: 1); type: cell-based
DNA replication licensing factor MCM7 (Homo sapiens), sequence (P33993 whole entry): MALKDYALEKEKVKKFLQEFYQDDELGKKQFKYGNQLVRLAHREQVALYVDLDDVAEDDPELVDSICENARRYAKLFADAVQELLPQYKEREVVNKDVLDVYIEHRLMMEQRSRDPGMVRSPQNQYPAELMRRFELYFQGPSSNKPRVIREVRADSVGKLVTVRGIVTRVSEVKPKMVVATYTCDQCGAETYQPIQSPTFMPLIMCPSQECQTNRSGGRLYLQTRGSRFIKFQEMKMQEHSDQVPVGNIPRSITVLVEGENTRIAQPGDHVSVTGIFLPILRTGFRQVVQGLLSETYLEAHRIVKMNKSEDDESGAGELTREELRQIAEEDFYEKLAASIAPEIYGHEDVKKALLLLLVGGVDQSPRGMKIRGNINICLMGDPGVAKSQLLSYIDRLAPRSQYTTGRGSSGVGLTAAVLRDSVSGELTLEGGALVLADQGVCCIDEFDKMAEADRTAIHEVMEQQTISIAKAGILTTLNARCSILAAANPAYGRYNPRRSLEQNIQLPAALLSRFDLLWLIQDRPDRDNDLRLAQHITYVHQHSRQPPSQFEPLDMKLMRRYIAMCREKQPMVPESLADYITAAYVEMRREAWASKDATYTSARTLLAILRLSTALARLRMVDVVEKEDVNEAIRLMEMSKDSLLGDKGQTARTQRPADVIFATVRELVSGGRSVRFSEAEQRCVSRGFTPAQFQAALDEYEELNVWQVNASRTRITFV

[11] = molecular target: DNA replication licensing factor MCM2 (Homo sapiens) (UniProt P49736); experiment: Induction of ubiquitination of FLAG-tagged MCM2 in human NCI-H1975 cells incubated for 24 hrs by magnetic beads technique based immunoblot analysis; type: cell-based
[12] = tested on: NCI-H1975; experiment: Antiproliferative activity against human NCI-H1975 cells harboring FLAG-tagged MCM2 Q341A mutant assessed as reduction in cell viability incubated for 72 hrs by SRB assay; type: functional, cell-based; settings: NCI-H1975, 72 h
[13] = Selectivity index, ratio of IC50 for human bronchial epithelial cells to IC50 for human CL1-0 cells; type: toxicity; settings: human bronchial epithelial cells versus CL1-0 cells, read-out: Ratio IC50
[14] = Selectivity index, ratio of IC50 for human bronchial epithelial cells to IC50 for human NCI-H1975 cells; type: toxicity; settings: human bronchial epithelial cells versus NCI-H1975 cells, read-out: Ratio IC50

- Activity [7]: Dose-dependent effect
- Activity [8]: 0.4
- Activity [9]: 0.2
- Activity [10]: 0.8
- Activity [11]: Active
- IC50 [12]: 150 nM
SMILES: Cc1oc2c(c1C(=O)NCCCn1ccnc1)C(=O)c1ccccc1C2=O
- IC50 [1]: < 100 nM
- IC50 [2]: < 100 nM
- Activity [3]: Non-Toxic
- Activity [4]: Non-Toxic
- Activity [5]: Non-Toxic
- Activity [6]: Active
- selectivity ratio [13]: > 10
- selectivity ratio [14]: > 10
